We go through three molecules from patent publication US12138256B2, “Treatment of cardiopulmonary disorders” (Bayer Aktiengesellschaft, priority 2021, dated 2024).

In this assay the test system is isolated Langendorff-perfused rat heart. The experiment in a line: Isolated perfused heart according to Langendorff: perfusion pressure and wash-out score (C-1.2). Particulars: for Perfusion pressure (%) (timepoint at 20 min) Mean: isolated Langendorff-perfused rat heart; for Perfusion pressure (%) (timepoint at 90 min) Mean: wash-out phase; for wash-out score: PP recovery after 60 min of washout related to maximum drop of PP; for wash-out score / effect on perfusion pressure (PP): comparative example 11 300 nmol/l, others 100 nmol/l, n=6. In short, it runs like this:
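Hearts from male Wistar rats (200–250 g) perfused retrogradely at constant flow, 9 ml/min, with Krebs-Henseleit buffer (pH 7.4, 35 °C), beating spontaneously, LV balloon end-diastolic pressure set to 8 mm Hg. After compound, 120 min wash-out; score = % perfusion-pressure recovery at 60 min relative to the maximal compound-induced drop.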

Regarding `O=C(O)CCCCN(CCc1cc(F)ccc1OCc1ccc(-c2nc3cc(Cl)ccc3o2)cc1)C1CCCc2nc(C(=O)O)ccc21` (single isomer, unassigned) [comparative example 3, (5)-{(4-carboxybutyl)[2-(2-{[4-(5-chloro-1,3-benzoxazol-2-yl)benzyl]oxy}-5-fluorophenyl)ethyl]amino}-5,6,7,8-tetrahydroquinoline-2-carboxylic acid], the wash-out score turned out to be 25.4% and the “effect on perfusion pressure (PP)” value is “pronounced reduction of perfusion pressure”. In addition, where the note is “100 nmol/l”, the “Wash-out score (%) after 60 min” value stood at 25.4%, the “Perfusion pressure (%) (timepoint at 20 min) Mean” value worked out at 63.3% and the “Perfusion pressure (%) (timepoint at 90 min) Mean” value was 72.5%.
For the molecule `O=C(O)c1ccc(CCN(CCc2ccccc2OCc2ccc(-c3ccc(C(F)(F)F)cc3)cc2Cl)[C@H]2CCCc3nc(C(=O)O)ccc32)cc1` [comparative example 11, (5S)-5-{[2-(4-carboxyphenyl)ethyl][2-(2-{[3-chloro-4′-(trifluoromethyl)[biphenyl]-4-yl]methoxy}phenyl)ethyl]amino}-5,6,7,8-tetrahydroquinoline-2-carboxylic acid], the wash-out score is listed as 2.9% and the “effect on perfusion pressure (PP)” value is “pronounced reduction of perfusion pressure”. Also, for the setting “300 nmol/l”, the “Wash-out score (%) after 60 min” value worked out at 2.9%, the “Perfusion pressure (%) (timepoint at 20 min) Mean” value came out at 69.0% and the “Perfusion pressure (%) (timepoint at 90 min) Mean” value is listed as 71.9%.
As to `O=C(O)CCCCN(CCc1ccccc1OCc1ccc(CCc2ccccc2)cc1)Cc1ccc(C(=O)O)cc1` [comparative example 1, 4-[((4Carboxybutyl)-{2-[(4-phenethylbenzyl)oxy]phenethyl}amino)methyl]benzoic acid], the wash-out score was determined as 30% and the “effect on perfusion pressure (PP)” value is “pronounced reduction of perfusion pressure”.
